Experiment: Safety and tolerability (TEAEs, SAEs, DLTs, RP2D) in phase Ib study
Assay type: in vivo, human
Settings: 500 mg BID + nab-P/Gem
Source text: Safety assessments included collection of adverse events (AEs), serious AEs (SAEs), vital signs and physical examination, electrocardiogram (12-lead), laboratory assessments, including pregnancy test, and verification of concomitant treatments. A patient was considered as DLT-evaluable if the patient experienced a DLT or if otherwise, in the absence of a DLT, the patient received at least 85% of the planned doses of each study drug in the first 28-day cycle. DLTs were defined as any of the following events occurring in the first cycle of treatment (days 1 through 28) and attributed (i.e., judged to be at least possibly related) to the combination of PF-04136309 plus nab-paclitaxel/gemcitabine, where relationship with the combination could not be ruled out. DLTs were hematologic events of grade 4 neutropenia lasting >5 days; febrile neutropenia; grade ≥ 3 neutropenic infection; grade ≥ 3 thrombocytopenia with grade ≥ 2 bleeding; grade 4 thrombocytopenia; and nonhematologic events of grade 3 toxicities. Exceptions included nausea and vomiting responding to prophylaxis and/or treatment and lasting <7 days from each chemotherapy infusion period; diarrhea responding to treatment and lasting <7 days; grade 3 fatigue lasting <7 days; grade 3 QT interval corrected for heart rate prolongation (>500 msec) persisting after correction of any reversible causes; and/or grade 3 aspartate aminotransferase (AST) and/or alanine aminotransferase (ALT) increase lasting ≤7 days. All grade 4 toxicities and a delay of >2 weeks in receiving the next scheduled cycle due to persistent treatment-related toxicities were considered DLTs. AEs meeting DLT criteria in the dose-expansion phase included grade 3 events of diarrhea, hypokalemia, and dysesthesia and grade 4 hypoxia. […] AEs were graded according to the National Cancer Institute Common Terminology Criteria for Adverse Events, version 4.03.

O=C(NCC(=O)N1CC[C@H](N[C@H]2CC[C@@](O)(c3ccc(-c4ncccn4)cn3)CC2)C1)c1cccc(C(F)(F)F)c1 [PF-04136309]
12 (70.6) n (%): Any AE, Grade 3 (all-causality TEAE) | Nausea, Grade 1 (all-causality TEAE) | Pyrexia, Total (all-causality TEAE)
10 (58.8) n (%): Alopecia, Total (all-causality TEAE)
2 (11.8) n (%): Leukopenia, grade ≥3 (n = 17, treatment-related TEAE) | Neutropenia, grade ≥3 (n = 17, treatment-related TEAE) | Abdominal pain, Grade 3 (all-causality SAE) | Abdominal pain, Total (all-causality SAE) | Pyrexia, Total (all-causality SAE) | ALT increase, Grade 2 (all-causality TEAE) | Anemia, Grade 1 (all-causality TEAE) | Blood alkaline phosphatase, Grade 3 (all-causality TEAE) | Constipation, Grade 2 (all-causality TEAE) | Diarrhea, Grade 2 (all-causality TEAE) | Hyperglycemia, Grade 1 (all-causality TEAE) | Nausea, Grade 2 (all-causality TEAE)
11 (64.7) n (%): Any SAE, Total (all-causality SAE) | Anemia, Total (all-causality TEAE)
17 (100.0) n (%): Any AE, Total (all-causality TEAE)
14 (82.4) n (%): Nausea, Total (all-causality TEAE)
8 (47.1) n (%): Edema, peripheral, Total (all-causality TEAE) | Hyperglycemia, Total (all-causality TEAE) | Insomnia, Total (all-causality TEAE) | Neuropathy peripheral, Grade 1 (all-causality TEAE) | Rash, Total (all-causality TEAE)
5 (29.4) n (%): AST increase, Grade 3 (all-causality TEAE) | Anemia, Grade 2 (all-causality TEAE) | Appetite decrease, Grade 1 (all-causality TEAE) | Constipation, Grade 1 (all-causality TEAE) | Fatigue, Grade 3 (all-causality TEAE) | Headache, Total (all-causality TEAE) | Lymphopenia, Grade 3 (all-causality TEAE) | Lymphopenia, Total (all-causality TEAE) | Pyrexia, Grade 2 (all-causality TEAE) | Weight decreased, Grade 1 (all-causality TEAE)
0 n (%): Abdominal pain, Grade 1 (all-causality SAE) | Abdominal pain, Grade 2 (all-causality SAE) | Abdominal pain, Grade 4 (all-causality SAE) | Abdominal pain, Grade 5 (all-causality SAE) | Chest pain, Grade 1 (all-causality SAE) | Chest pain, Grade 2 (all-causality SAE) | Chest pain, Grade 4 (all-causality SAE) | Chest pain, Grade 5 (all-causality SAE) | Dyspnea, Grade 1 (all-causality SAE) | Dyspnea, Grade 2 (all-causality SAE) | Dyspnea, Grade 4 (all-causality SAE) | Dyspnea, Grade 5 (all-causality SAE) | Episcleritis, Grade 1 (all-causality SAE) | Episcleritis, Grade 3 (all-causality SAE) | Episcleritis, Grade 4 (all-causality SAE) | Episcleritis, Grade 5 (all-causality SAE) | Hypoxia, Grade 1 (all-causality SAE) | Hypoxia, Grade 2 (all-causality SAE) | Hypoxia, Grade 3 (all-causality SAE) | Hypoxia, Grade 5 (all-causality SAE) | Klebsiella bacteremia, Grade 1 (all-causality SAE) | Klebsiella bacteremia, Grade 2 (all-causality SAE) | Klebsiella bacteremia, Grade 4 (all-causality SAE) | Klebsiella bacteremia, Grade 5 (all-causality SAE) | Liver abscess, Grade 1 (all-causality SAE) | Liver abscess, Grade 2 (all-causality SAE) | Liver abscess, Grade 4 (all-causality SAE) | Liver abscess, Grade 5 (all-causality SAE) | Musculoskeletal pain, Grade 1 (all-causality SAE) | Musculoskeletal pain, Grade 2 (all-causality SAE) | Musculoskeletal pain, Grade 4 (all-causality SAE) | Musculoskeletal pain, Grade 5 (all-causality SAE) | Neck pain, Grade 1 (all-causality SAE) | Neck pain, Grade 2 (all-causality SAE) | Neck pain, Grade 4 (all-causality SAE) | Neck pain, Grade 5 (all-causality SAE) | Pneumonia, Grade 1 (all-causality SAE) | Pneumonia, Grade 2 (all-causality SAE) | Pneumonia, Grade 3 (all-causality SAE) | Pneumonia, Grade 4 (all-causality SAE) | Pneumonitis, Grade 1 (all-causality SAE) | Pneumonitis, Grade 2 (all-causality SAE) | Pneumonitis, Grade 4 (all-causality SAE) | Pneumonitis, Grade 5 (all-causality SAE) | Pyrexia, Grade 3 (all-causality SAE) | Pyrexia, Grade 4 (all-causality SAE) | Pyrexia, Grade 5 (all-causality SAE) | Small intestinal obstruction, Grade 1 (all-causality SAE) | Small intestinal obstruction, Grade 2 (all-causality SAE) | Small intestinal obstruction, Grade 4 (all-causality SAE) | Small intestinal obstruction, Grade 5 (all-causality SAE) | ALT increase, Grade 5 (all-causality TEAE) | AST increase, Grade 1 (all-causality TEAE) | AST increase, Grade 4 (all-causality TEAE) | AST increase, Grade 5 (all-causality TEAE) | Abdominal pain, Grade 1 (all-causality TEAE) | Abdominal pain, Grade 4 (all-causality TEAE) | Abdominal pain, Grade 5 (all-causality TEAE) | Alopecia, Grade 3 (all-causality TEAE) | Alopecia, Grade 4 (all-causality TEAE) | Alopecia, Grade 5 (all-causality TEAE) | Anemia, Grade 4 (all-causality TEAE) | Anemia, Grade 5 (all-causality TEAE) | Any AE, Grade 1 (all-causality TEAE) | Appetite decrease, Grade 2 (all-causality TEAE) | Appetite decrease, Grade 4 (all-causality TEAE) | Appetite decrease, Grade 5 (all-causality TEAE) | Blood alkaline phosphatase, Grade 4 (all-causality TEAE) | Blood alkaline phosphatase, Grade 5 (all-causality TEAE) | Constipation, Grade 3 (all-causality TEAE) | Constipation, Grade 4 (all-causality TEAE) | Constipation, Grade 5 (all-causality TEAE) | Diarrhea, Grade 4 (all-causality TEAE) | Diarrhea, Grade 5 (all-causality TEAE) | Edema, peripheral, Grade 3 (all-causality TEAE) | Edema, peripheral, Grade 4 (all-causality TEAE) | Edema, peripheral, Grade 5 (all-causality TEAE) | Fatigue, Grade 4 (all-causality TEAE) | Fatigue, Grade 5 (all-causality TEAE) | Headache, Grade 3 (all-causality TEAE) | Headache, Grade 4 (all-causality TEAE) | Headache, Grade 5 (all-causality TEAE) | Hyperglycemia, Grade 4 (all-causality TEAE) | Hyperglycemia, Grade 5 (all-causality TEAE) | Insomnia, Grade 3 (all-causality TEAE) | Insomnia, Grade 4 (all-causality TEAE) | Insomnia, Grade 5 (all-causality TEAE) | Lymphopenia, Grade 1 (all-causality TEAE) | Lymphopenia, Grade 2 (all-causality TEAE) | Lymphopenia, Grade 4 (all-causality TEAE) | Lymphopenia, Grade 5 (all-causality TEAE) | Nausea, Grade 3 (all-causality TEAE) | Nausea, Grade 4 (all-causality TEAE) | Nausea, Grade 5 (all-causality TEAE) | Neuropathy peripheral, Grade 3 (all-causality TEAE) | Neuropathy peripheral, Grade 4 (all-causality TEAE) | Neuropathy peripheral, Grade 5 (all-causality TEAE) | Pyrexia, Grade 3 (all-causality TEAE) | Pyrexia, Grade 4 (all-causality TEAE) | Pyrexia, Grade 5 (all-causality TEAE) | Rash, Grade 3 (all-causality TEAE) | Rash, Grade 4 (all-causality TEAE) | Rash, Grade 5 (all-causality TEAE) | Vomiting, Grade 3 (all-causality TEAE) | Vomiting, Grade 4 (all-causality TEAE) | Vomiting, Grade 5 (all-causality TEAE) | Weight decreased, Grade 3 (all-causality TEAE) | Weight decreased, Grade 4 (all-causality TEAE) | Weight decreased, Grade 5 (all-causality TEAE) | Any SAE, Grade 1 (treatment-related SAE) | Any SAE, Grade 2 (treatment-related SAE)
13 (76.5) n (%): Fatigue, Total (all-causality TEAE)
9 (52.9) n (%): Neuropathy peripheral, Total (all-causality TEAE) | Weight decreased, Total (all-causality TEAE)
7 (41.2) n (%): Any SAE, Grade 3 (all-causality SAE) | ALT increase, Total (all-causality TEAE) | Alopecia, Grade 1 (all-causality TEAE) | Blood alkaline phosphatase, Total (all-causality TEAE) | Constipation, Total (all-causality TEAE) | Diarrhea, Total (all-causality TEAE) | Edema, peripheral, Grade 1 (all-causality TEAE) | Insomnia, Grade 1 (all-causality TEAE) | Pyrexia, Grade 1 (all-causality TEAE) | Rash, Grade 1 (all-causality TEAE) | Vomiting, Total (all-causality TEAE)
1 (5.9) n (%): Any SAE, Grade 1 (all-causality SAE) | Any SAE, Grade 2 (all-causality SAE) | Any SAE, Grade 4 (all-causality SAE) | Any SAE, Grade 5 (all-causality SAE) | Chest pain, Grade 3 (all-causality SAE) | Chest pain, Total (all-causality SAE) | Dyspnea, Grade 3 (all-causality SAE) | Dyspnea, Total (all-causality SAE) | Episcleritis, Grade 2 (all-causality SAE) | Episcleritis, Total (all-causality SAE) | Hypoxia, Grade 4 (all-causality SAE) | Hypoxia, Total (all-causality SAE) | Klebsiella bacteremia, Grade 3 (all-causality SAE) | Klebsiella bacteremia, Total (all-causality SAE) | Liver abscess, Grade 3 (all-causality SAE) | Liver abscess, Total (all-causality SAE) | Musculoskeletal pain, Grade 3 (all-causality SAE) | Musculoskeletal pain, Total (all-causality SAE) | Neck pain, Grade 3 (all-causality SAE) | Neck pain, Total (all-causality SAE) | Pneumonia, Grade 5 (all-causality SAE) | Pneumonia, Total (all-causality SAE) | Pyrexia, Grade 1 (all-causality SAE) | Pyrexia, Grade 2 (all-causality SAE) | Small intestinal obstruction, Grade 3 (all-causality SAE) | Small intestinal obstruction, Total (all-causality SAE) | ALT increase, Grade 1 (all-causality TEAE) | ALT increase, Grade 4 (all-causality TEAE) | AST increase, Grade 2 (all-causality TEAE) | Any AE, Grade 2 (all-causality TEAE) | Any AE, Grade 5 (all-causality TEAE) | Appetite decrease, Grade 3 (all-causality TEAE) | Blood alkaline phosphatase, Grade 1 (all-causality TEAE) | Diarrhea, Grade 3 (all-causality TEAE) | Edema, peripheral, Grade 2 (all-causality TEAE) | Headache, Grade 2 (all-causality TEAE) | Insomnia, Grade 2 (all-causality TEAE) | Neuropathy peripheral, Grade 2 (all-causality TEAE) | Rash, Grade 2 (all-causality TEAE) | Vomiting, Grade 2 (all-causality TEAE)
4 (23.5) n (%): Anemia, grade ≥3 (n = 17, treatment-related TEAE) | Fatigue, grade ≥3 (n = 17, treatment-related TEAE) | Lymphopenia, grade ≥3 (n = 17, treatment-related TEAE) | Anemia, Grade 3 (all-causality TEAE) | Blood alkaline phosphatase, Grade 2 (all-causality TEAE) | Diarrhea, Grade 1 (all-causality TEAE) | Fatigue, Grade 1 (all-causality TEAE) | Fatigue, Grade 2 (all-causality TEAE) | Headache, Grade 1 (all-causality TEAE) | Weight decreased, Grade 2 (all-causality TEAE)
6 (35.3) n (%): AST increase, Total (all-causality TEAE) | Abdominal pain, Total (all-causality TEAE) | Appetite decrease, Total (all-causality TEAE) | Vomiting, Grade 1 (all-causality TEAE)
3 (17.6) n (%): DLT (n = 17, first cycle (days 1 through 28)) | ALT increase, grade ≥3 (n = 17, treatment-related TEAE) | AST increase, grade ≥3 (n = 17, treatment-related TEAE) | Pneumonitis, Grade 3 (all-causality SAE) | Pneumonitis, Total (all-causality SAE) | ALT increase, Grade 3 (all-causality TEAE) | Abdominal pain, Grade 2 (all-causality TEAE) | Abdominal pain, Grade 3 (all-causality TEAE) | Alopecia, Grade 2 (all-causality TEAE) | Any AE, Grade 4 (all-causality TEAE) | Hyperglycemia, Grade 2 (all-causality TEAE) | Hyperglycemia, Grade 3 (all-causality TEAE)
